Data published in US12622917B2, “High-activity Wnt pathway inhibitor compound” (ADLAI NORTYE BIOPHARMA CO., LTD., priority 2020, dated 2026).

Assays:
[1] = tested on: NCI-H929; assay: Proliferation inhibition, NCI-H929 cell line; assay type: cell-based, human; conditions: Homo sapiens; NCI-H929 cells, 96 hours culture, cell viability detection; read-out: Antiproliferative IC50 NCI-H929
From the text: (§1) The cell lines used in the test are NCI-H929 and HepG2 cell lines whose Wnt pathway is continuously activated and whose proliferation is Wnt pathway-dependent; the inhibitory effect of the compound of the present invention on Wnt-dependent proliferation is judged.
(§2) Treat the NCI-H929 and HepG2 cell lines cultured in their respective mediums in the logarithmic growth phase, collect the cells and prepare a uniform cell suspension of known concentration, and then add the cell suspension to the 96-well cell culture plate solution so that each well contains 4000 cells. Put it into a […] incubator and incubate at 37° C. for 20-24 h. On the second day, the fully dissolved, 3-fold serially diluted compound was added to each cell culture well, so that the final maximum concentration in the cell culture well was 20 uM, and the culture was continued for 96 hours. In this test, Promega's cell viability detection test is used for detection. The more the cells proliferate, the stronger the final signal intensity will be. The detection instrument is SpectraMax, full wavelength mode. The wells only added with DMSO were used as positive control wells, and the wells that were not inoculated with cells were used as negative control wells. […] The IC50 value of cell proliferation inhibition was used to evaluate the inhibitory effect of the compound on the Wnt pathway and the toxic effect on normal cells (Table 3).

[2] = tested on: Colo205; assay: Proliferation inhibition, Wnt mutant cell line Colo205; assay type: cell-based; conditions: Homo sapiens, COLO 205; Colo205, Wnt pathway-dependent, 96 hours; read-out: Antiproliferative IC50 Colo205
From the text: (§3) The cell lines used in the experiment are Colo205 and DU4475 cell lines whose Wnt pathway is continuously activated and whose proliferation is Wnt pathway-dependent; while the BELA and RKO cell lines, whose Wnt pathway is not activated under normal circumstances and the proliferation is independent of Wnt pathway, as control cell lines. It is Judged that the inhibitory effect of the compound of the present invention on Wnt-dependent proliferation is not caused by other non-specific toxicity.
(§4) Treat the Colo205, Du4475, HELA and RKO cell lines cultured in their respective mediums in the logarithmic growth phase, collect the cells and prepare a uniform cell suspension of known concentration, and then add it to the 96-well cell culture plate Cell suspension, so that each well contains 1000 cells. Put it into a 5% CO2 incubator and incubate at 37° C. for 20-24 h. On the second day, the fully dissolved, 3-fold serially diluted compound was added to each cell culture well, so that the final maximum concentration in the cell culture well was 20 uM, and the culture was continued for 96 hours. In this test, Promega's cell viability detection test is used for detection. The more the cells proliferate, the stronger the final signal intensity will be. The detection instrument is SpectraMax, full wavelength mode. The wells only added with DMSO were used as positive control wells, and the wells that were not inoculated with cells were used as negative control wells. […] The IC50 value of cell proliferation inhibition was used to evaluate the inhibitory effect of the compound on the Wnt pathway and the toxic effect on normal cells (Table 2).

[3] = tested on: HepG2; assay: Proliferation inhibition, HepG2 cell line; assay type: cell-based; conditions: Homo sapiens; HepG2 cells, 96 hours culture, cell viability detection; read-out: Antiproliferative IC50 HepG2
From the text: as §1, §2

[4] = tested on: DU4475; assay: Proliferation inhibition, Wnt mutant cell line DU4475; assay type: cell-based; conditions: Homo sapiens, DU-4475; DU4475, Wnt pathway-dependent, 96 hours; read-out: Antiproliferative IC50 DU4475
From the text: as §3, §4

[5] = tested on: RKO; assay: Proliferation inhibition, non-Wnt mutant control cell line RKO; assay type: cell-based; conditions: Homo sapiens, Wnt-independent control cell line, 96 hours, read-out: Antiproliferative IC50 RKO
From the text: as §3, §4

[6] = tested on: Colo205-LUC-TCF/LEF M1 reporter cell line (Wnt pathway); assay: Colo205-LUC-TCF/LEF M1 reporter gene (luciferase) inhibition; assay type: cell-based; conditions: 4 hours incubation, luciferase readout
From the text: Colo205 cell line (Cell Bank of Chinese Academy of Sciences, Cat #TCHu102) was purchased from the Cell Bank of Chinese Academy of Sciences. After expansion and subculture, in the exponential growth phase of the cells, transfection with lipo3000 liposome transfection with TCF/LEF transcription factors Driven luciferase reporter plasmid (Promega). […] The plasmid carries a resistance gene for resistance screening. Transfection was carried out in 10 cm culture dishes using conventional complete medium without resistance. After 2 days, the medium with resistance was replaced, and the culture was continued. After that, the resistant medium was replaced every 2 days, and the suspended cells were discarded. The original medium was centrifuged to remove cells and debris and retained as an adaptive medium. When the cells covered the culture dish, the cells were digested, counted, and passaged in a 96-well plate, so that the average number of cells contained in each well was 1.5/well, and the adaptive medium was used for passage. The rest of the cells were frozen. After subculture, culture for 4 hours to allow the cells to adhere to the wall, and then observe the number of cells in each well under a microscope. Wells with only 1 cell per well were labeled as monoclonal wells. Afterwards, normal culture was performed, and the culture medium was replaced every 2 days, and observed. There are holes where the monoclonal cells continue to grow in the early stage, and they are labeled twice, and can be replaced with normal resistant medium. When a monoclonal well was overgrown with a 96-well plate, it is digested and passaged to a 24-well culture plate. After the 24-well plate is overgrown, it is passaged to a 96-well plate and a 6-well plate. The cells in a 96-well plate are at least 6 wells, of which 3 wells were added with known Wnt inhibitors, and the other 3 wells were not treated. After 24 hours, the cells in the 96-well plate were added with a fluorescence detection reagent to detect the fluorescence intensity. Cell lines with fluorescent expression when not treated and decreased fluorescent light after inhibition were selected and further cultured. The Colo205-LUC-TCF/LEF-M1 cell line is one of the cell lines screened above. Its growth curve, cell shape, and cell growth state are similar to those of the original Colo205 cells, and the ratio of the fluorescent signals of the inhibitor-treated and untreated cells is the largest among all cell lines, and the ratio can reach 4-5 times when inhibited at 4 hours, which was completely suitable for the screening of Wnt inhibitors in the later stage.
The Colo205-LUC-TCF/LEF M1 cell line is a reporter tool cell stably transfected with the pGL4.49-LUC2-TCF/LEF vector. The β-catenin Wnt pathway is continuously activated. After adding the inhibitor, the Wnt pathway is inhibited. The expression of firefly luciferase regulated by the[…] cis-element decreased, and after adding the detection substrate, the detected light signal decreased accordingly, so as to detect the inhibitory effect of the compound.
To a 96-well cell culture plate, add 100 uL of the compound with a maximum concentration of 20 uM to each well, and make a 3-fold serial dilution of the compound concentration. Then 10,000 colo205 cells stably transfected with the reporter gene and 100 uL medium were inoculated into each well, and corresponding positive and negative control wells were made at the same time. Put the cells in a 5% CO2 incubator and incubate at 37° C. for 4 hours. After 4 hours, remove the culture medium, add 100 uL of reagent (Promega) containing the corresponding firefly luciferase substrate to each well, and measure the activity of luciferase reporter gene. Luminescence intensity was read with SpectraMax in full wavelength mode. […]

Compound	IC50 [1] [nM]	IC50 [2] [nM]	IC50 [3] [nM]	IC50 [6] [nM]	IC50 [4] [nM]	IC50 [5] [µM]
CN1c2nc(NCc3ccc(Oc4cnc(C(F)(F)F)nc4)nc3)nc3c2N(CCC3)C(=O)[C@@H]1CF [150 (W301)]	62	24	19	25	12	> 10
CCn1nc(C(F)(F)F)cc1Oc1ccc(CNc2nc3c4c(n2)N(C)[C@@](C)(CO)C(=O)N4CCC3)cn1 [204 (W374)]	60	9.6	12	25	–	> 10
[2H]C([2H])([2H])OC[C@@]1(C)C(=O)N2CCCc3nc(NCc4ccc(Oc5cnc(C(F)(F)F)nc5)nc4)nc(c32)N1C([2H])([2H])[2H] [181 (W396)]	25	11.9	81	18	–	> 10
CN1c2nc(NCc3ccc(Oc4cnc(C(F)(F)F)nc4)nc3)nc3c2N(CCC3)C(=O)[C@@H]1C(C)(C)C [160 (W362)]	48	< 0.5	3.5	3	–	7.15
CC(C)N1c2nc(NCc3ccc(Oc4cnc(C(F)(F)F)nc4)nc3)nc3c2N(CCC3)C(=O)[C@@H]1C [170 (W368)]	94	7	31	17	–	> 10
CCn1nc(C(F)(F)F)cc1Oc1ccc(CNc2nc3c4c(n2)N(C)[C@@H](COC)C(=O)N4CCC3)cn1 [202 (W361)]	50	5	10	4	–	> 10
CN1c2nc(NCc3ccc(Oc4cc(C(F)(F)F)nn4C4CC4)nc3)nc3c2N(CCC3)C(=O)[C@@H]1CO [205 (W379)]	67	14.8	5.6	37	–	> 10
COc1nc(C(F)(F)F)ccc1Oc1ccc(CNc2nc3c4c(n2)N(C)[C@@](C)(CO)C(=O)N4CCC3)cn1 [232 (W418)]	–	4	< 0.5	5.5	–	> 10
CCn1nc(C(F)(F)F)cc1Oc1ccc(CNc2nc3c4c(n2)N(C)[C@@H](C)C(=O)N4CCC3)cn1 [152 (W336)]	36	2.7	4.4	4	–	> 10

Now from value to molecule, other results behind:

IC50 [1] [nM]	IC50 [2] [nM]	IC50 [3] [nM]	IC50 [6] [nM]	Compound	IC50 [4] [nM]	IC50 [5] [µM]
60	19.2	23	39	[2H]C([2H])([2H])N1c2nc(NCc3ccc(Oc4cnc(C(F)(F)F)nc4)nc3)nc3c2N(CCC3)C(=O)[C@@H]1COC [178 (W333)]	13.7	> 10
82	34	9.6	–	COCC[C@H]1C(=O)N2CCCc3nc(NCc4ccc(Oc5ccc(C(F)(F)F)nc5)nc4)nc(c32)N1C [214 (W392)]	–	> 10
95	9.3	8.2	21	CN1c2nc(NCc3ccc(Oc4cc(C(F)(F)F)nn4C4CC4)nc3)nc3c2N(CCC3)C(=O)[C@]1(C)CO [203 (W372)]	–	> 10
12	3.2	4	23	[2H]C([2H])([2H])N1c2nc(NCc3ccc(Oc4cnc(C(F)(F)F)nc4)nc3)nc3c2N(CCC3)C(=O)C1CC(F)(F)F (stereo not shown) [192 (W324)]	–	> 10
51	3.6	14	6	[2H]C([2H])([2H])N1c2nc(NCc3ccc(Oc4cc(C(F)(F)F)nn4CC)nc3)nc3c2N(CCC3)C(=O)[C@@H]1COC [201 (W360)]	–	> 10
82	14.6	40	23	COC[C@@]1(C)C(=O)N2CCCc3nc(NCc4ccc(Oc5cnc(C(F)(F)F)nc5)nc4)nc(c32)N1C [180 (W386)]	–	> 10
45	–	11	23	COC[C@@]1(C)C(=O)N2CCCc3nc(NCc4ccc(Oc5ccc(C(F)(F)F)nc5)nc4)nc(c32)N1C [179 (W375)]	–	> 10
19	2.1	4	22	[2H]C([2H])([2H])N1c2nc(NCc3ccc(Oc4ccc(C(F)(F)F)nc4)nc3)nc3c2N(CCC3)C(=O)C1CC(F)(F)F (stereo not shown) [195 (W323)]	–	> 10
90	10	49	24	C[C@@H](O)[C@H]1C(=O)N2CCCc3nc(NCc4ccc(Oc5cc(C(F)(F)F)nn5C5CC5)nc4)nc(c32)N1C [206 (W388)]	–	> 10
–	19	68	36	Cc1cc(CNc2nc3c4c(n2)N(C)[C@@H](C)C(=O)N4CCC3)cnc1Oc1ccc(C(F)(F)F)nc1 [103 (W195)]	11	> 10
–	8.8	2.3	17	CN1c2nc(NCc3ccc(Oc4cnc(C(F)(F)F)nc4)nc3)nc3c2N(CCC3)C(=O)C1CC(F)(F)F (stereo not shown) [198 (W307)]	–	> 10
19	< 0.5	< 0.5	< 0.5	C[C@H]1C(=O)N2CCCc3nc(NCc4ccc(Oc5cc(C(F)(F)F)nn5C5CC5)nc4)nc(c32)N1C [130 (W354), (S)-2-(((6-((1-cyclopropyl-3-(trifluoromethyl)-1H-pyrazol-5-yl)oxo)pyridin-3-yl)methyl)amino)-4,5-dimethyl-4,5,9,10-tetrahydro-6H,8H-pyrido[3,2,1-de]pteridin-6-one]	–	> 10
